In patent US20030139616A1, “Method of searching for arteriosclerosis inhibitors and shrinkers” (priority 2000, published 2003):

Assays:
[1] = system: foam mouse macrophages; assay: Defoaming-promoting activity (cholesterol efflux into medium); type: cell-based; settings: for Amount of cholesterol transferred (control group = 100%) Mean: method of Example 4; for action on transfer of cholesterol: result in words, summary of Tables 3 and 7
Method: The activity of the test compound on defoaming was measured by treating the foam mouse macrophages prepared in Example 1, with RPMI 1640-25 mM HEPES medium (pH 7) containing the test compound for 24 hours, followed by adding 20% fetal bovine serum (JRH Ltd.), and determining the radioactivity released into the medium after further culture for 24 hours. The defoaming-promoting activity of a group treated with the compound was calculated as a ratio (%) of the radioactivity corrected by a blank value to that of a control group. The blank value used was the radioactivity in the absence of the test compound and 20% fetal bovine serum. The defoaming-promoting activities of the control group and the group treated with the compound were corrected by the amount of cell protein measured by the BCA assay kit from Pierce Ltd. after the cells were solubilized with 0.1 N NaOH/0.1% SDS solution.
The promoting action of Compound A on defoaming was measured by using the method described in Example 4.

[2] = system: foamed macrophages; assay: Intracellular cholesteryl ester content by enzyme method; type: cell-based, mouse; settings: for Content of intracellular cholesteryl esters (control group = 100%) Mean: method of Example 5 (enzyme method); for action on reduction of the cholesteryl ester content: result in words, summary of Tables 4 and 8
Method: The mouse peritoneal macrophages prepared in Example 1 were cultured for 24 hours in an RPMI 1640-25 mM HEPES medium (pH 7) containing β-VLDL (150 μg/ml) and a conjugate of 0.2 mM oleic acid/0/2% bovine serum albumin to obtain foam cells in which cholesteryl esters were accumulated. These foamed macrophages were treated with an RPMI 1640-25 mM HEPES medium (pH 7) containing the test compound for 24 hours, and then the whole lipid was extracted. The lipid thus extracted was dissolved in isopropanol and measured for the amounts of the whole cholesterol and free cholesterol by the enzyme method (E-Test Wako, Wako Ltd.), and, from the difference therebetween, the amount of cholesteryl esters was calculated. The amounts of cell protein in a control group and a group treated with the compound were measured with a BCA assay kit from Pierce Ltd. after the cells were solubilized with 0.1 N NaOH/0.1% SDS solution, and assuming that the amount of cholesteryl esters (μg/mg cell protein) in the cells in the control group was 100%, the amount of cholesteryl esters (%) in the group treated with the compound was calculated.
The action of Compound A on reduction of the content of intracellular cholesteryl esters was measured by using the method described in Example 5.

[3] = system: Mouse peritoneal macrophages; assay: Inhibitory action on synthesis of intracellular cholesteryl esters; type: cell-based; settings: for Content of intracellular cholesteryl esters (control group = 100%) TLC method Mean / Content of intracellular cholesteryl esters (control group = 100%) Methanol method Mean: 24 hours, 25-hydroxycholesterol
Method: Mouse peritoneal macrophages prepared in the method described in Example 1 were cultured for 24 hours in an RPMI 1640-25 mM HEPES medium (pH 7) containing 1% fetal bovine serum and [1,2,6,7-^3H]-cholesterol (37 Kbq/ml, NEN Ltd.). The macrophages were labeled with ^3H-cholesterol and then cultured for 24 hours in an RPMI 1640-25 mM HEPES medium (pH 7) containing 2-[6-chloro-4-(2-methylphenyl)-2-oxo-2H-chromene-3-yl]-N-(2,6-dimethoxyphenyl) acetamide (referred to hereinafter as Compound A), 25-hydroxycholesterol (5 μg/ml, Sigma) and 0.2 mM oleic acid/0.2% bovine serum albumin, and the content of synthesized intracellular cholesteryl esters was quantified by the TLC fractionation method or the aqueous methanol extraction method (hereinafter also referred to as the methanol method). The measurement by the TLC fractionation method was conducted by extracting the whole intracellular lipid with a hexane-isopropanol mixture (3:2, v/v) and then fractionating the lipid in TLC under the same conditions as in Example 1 to quantify the intracellular cholesteryl esters. The measurement by the aqueous methanol extraction method was conducted by treating the cells with 80% methanol for 10 minutes, then solubilizing the cells with 0.1 N NaOH/0.1% SDS solution, and measuring their radioactivity. Each value of radioactivity was corrected by the amount of cell proteins measured with a BCA assay kit (Pierce Ltd.) after the cells were solubilized with 0.1 N NaOH/0.1% SDS solution, and assuming that the radioactivity (dpm/mg cell protein) of the control group in the absence of the test compound was 100%, the content of intracellular cholesteryl esters (%) in the group treated with Compound A was calculated.

[4] = system: Foam cells derived from mouse peritoneal macrophages; assay: Promoting action on decomposition of intracellular cholesteryl esters; type: cell-based; settings: for Content of intracellular cholesteryl esters (control group = 100%) TLC method Mean / Content of intracellular cholesteryl esters (control group = 100%) Methanol method Mean: 48 hours
Method: Foam cells derived from mouse peritoneal macrophages, prepared in the method described in Example 1, were cultured for 48 hours in an RPMI 1640-25 mM HEPES medium (pH 7) containing Compound A, and a reduction in the intracellular cholesteryl ester content was quantified by a TLC fractionation method or an aqueous methanol extraction method. The measurement by the TLC fractionation method was conducted by extracting the whole intracellular lipid with a hexane-isopropanol mixture (3:2, v/v) and then fractionating the lipid by TLC under the same conditions as in Example 1 to quantify the intracellular cholesteryl esters. The measurement by the aqueous methanol extraction method was conducted by treating the cells with 80% methanol for 10 minutes, then solubilizing the cells with 0.1 N NaOH/0.1% SDS solution, and measuring their radioactivity. Each value of radioactivity was corrected by the amount of cell proteins measured with a BCA assay kit (Pierce Ltd.) after the cells were solubilized with 0.1 N NaOH/0.1% SDS solution, and assuming that the radioactivity (dpm/mg cell protein) of the control group in the absence of the test compound was 100%, the content of intracellular cholesteryl esters (%) in the group treated with Compound A was calculated.

[5] = system: foam macrophages; assay: Measurement of regulatory activity on intracellular cholesteryl ester cycle (aqueous methanol extraction); type: cell-based, mouse
Method: According to the method of Hakamada et al. (“Jikken Igaku (Experimental Medicine), Extra Issue”, vol. 14, No. 12, Circulation Study Protocol, pp. 49-52 (1996)), peritoneal macrophages were prepared from C57BL6J mice stimulated with thioglycolate, and then cultured for 24 hours in RPMI 1640-25 mM HEPES (pH 7) containing β-very low-density lipoprotein (β-VLDL, 150 μg cholesterol/ml) prepared according to the method of Ishii et al. (Arterioscler. Thromb., 12, 1139-1145, 1992), a conjugate of 0.2 mM oleic acid/0.2% bovine serum albumin, and [1,2,6,7-^3H]-cholesterol (NEN, 37 KBq/ml) to obtain foam cells in which cholesteryl esters were accumulated. […] A part of the extract was fractionated by the TLC method (Merck Silica Gel Plate No. 5582, developing solvent: petroleum ether/diethyl ether/acetic acid=9:1:0.1), free cholesterol and cholesteryl ester fractions were cut off, a liquid scintillator was added, and the radioactivity thereof was measured.
In an RPMI 1640-HEPES medium (pH 7) containing the test compound, the foam macrophages prepared in Example 1 were cultured for 24 hours. The cells were extracted with 80% aqueous methanol for 10 minutes and then solubilized with 0.1 NaOH/0.1% SDS solution, a liquid scintillator was added to a portion thereof, and its radioactivity was measured. […]

COc1cccc(OC)c1NC(=O)Cc1c(-c2ccccc2C)c2cc(Cl)ccc2oc1=O [Compound A, 2-[6-chloro-4-(2-methylphenyl)-2-oxo-2H-chromene-3-yl]-N-(2,6-dimethoxyphenyl) acetamide]
Amount of cholesterol transferred (control group = 100%) Mean ([1]; 0.01 mM): 142% | Amount of cholesterol transferred (control group = 100%) Mean ([1]; 0.1 mM): 191% | action on transfer of cholesterol [1]: strong action | Content of intracellular cholesteryl esters (control group = 100%) Mean ([2]; 0.01 mM): 63% | Content of intracellular cholesteryl esters (control group = 100%) Mean ([2]; 0.1 mM): 48% | action on reduction of the cholesteryl ester content [2]: strong action | Content of intracellular cholesteryl esters (control group = 100%) TLC method Mean ([3]; 0.01 mM): 44% | Content of intracellular cholesteryl esters (control group = 100%) Methanol method Mean ([3]; 0.01 mM): 41% | Content of intracellular cholesteryl esters (control group = 100%) TLC method Mean ([3]; 0.03 mM): 16% | Content of intracellular cholesteryl esters (control group = 100%) Methanol method Mean ([3]; 0.03 mM): 19% | Content of intracellular cholesteryl esters (control group = 100%) TLC method Mean ([3]; 0.1 mM): 5% | Content of intracellular cholesteryl esters (control group = 100%) Methanol method Mean ([3]; 0.1 mM): 9% | inhibitory activity on synthesis of cholesteryl esters ([3]; result in words, summary of Table 5): potent inhibitory activity | Content of intracellular cholesteryl esters (control group = 100%) TLC method Mean ([4]; 0.01 mM): 71% | Content of intracellular cholesteryl esters (control group = 100%) Methanol method Mean ([4]; 0.01 mM): 74% | Content of intracellular cholesteryl esters (control group = 100%) TLC method Mean ([4]; 0.1 mM): 8% | Content of intracellular cholesteryl esters (control group = 100%) Methanol method Mean ([4]; 0.1 mM): 14% | promoting activity on degradation of cholesteryl esters ([4]; result in words, summary of Table 6): strong promoting activity

CCCC(=O)Nc1ncnc2c1ncn2[C@@H]1O[C@@H]2COP(=O)(O)O[C@H]2[C@H]1OC(=O)CCC [dbc-AMP, Dibutyryl cyclic AMP, reference compound]
Amount of cholesterol efflux (%) ([1]; 100 μM, 24 hours then 20% fetal bovine serum 24 hours, control = 100%): 160 ± 15 p < 0.01 % | action on transfer of cholesterol [1]: exerts an action | Cholesteryl ester content (%) ([5]; 100 μM, 24 hours, 80% aqueous methanol extraction, control = 100%): 60 ± 12 p < 0.01 % | cholesteryl ester cycle-regulating action ([5]; result in words, summary of Table 2): potent cholesteryl ester-hydrolytic activity | Cholesteryl ester content (%) ([2]; 100 μM, 24 hours, enzyme method, control = 100%): 78 ± 4 p < 0.01 % | action on reduction of the cholesteryl ester content [2]: exerts an action
